Experimental data as given in PubChem BioAssay (NCI).
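Five concentrations, 48 hours, 96-well plates. Abbreviation: GI50, concentration required for 50% inhibition of growth. TGI denotes the concentration required for complete inhibition of growth.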

Legend:
Assay in all cases: NCI anticancer screen, dose series, 48 h
SK-MEL-5 melanoma = test system: SK-MEL-5 melanoma
COLO 205 colon = test system: COLO 205 colon
SNB-19 CNS = test system: SNB-19 CNS
HCC-2998 colon = test system: HCC-2998 colon
NCI-H460 lung = test system: NCI-H460 lung
BT-549 breast = test system: BT-549 breast
CAKI-1 renal = test system: CAKI-1 renal
SNB-75 CNS = test system: SNB-75 CNS
OVCAR-3 ovarian = test system: OVCAR-3 ovarian
OVCAR-4 ovarian = test system: OVCAR-4 ovarian
SR leukemia = test system: SR leukemia
U251 CNS = test system: U251 CNS
786-0 renal = test system: 786-0 renal
UACC-257 melanoma = test system: UACC-257 melanoma
NCI/ADR-RES ovarian = test system: NCI/ADR-RES ovarian
SF-268 CNS = test system: SF-268 CNS
HCT-116 colon = test system: HCT-116 colon
DU-145 prostate = test system: DU-145 prostate
EKVX NSCLC = test system: EKVX NSCLC
A498 renal = test system: A498 renal
MALME-3M melanoma = test system: MALME-3M melanoma
NCI-H226 lung = test system: NCI-H226 lung
ACHN renal = test system: ACHN renal
SF-539 CNS = test system: SF-539 CNS
SK-OV-3 ovarian = test system: SK-OV-3 ovarian
HOP-62 NSCLC = test system: HOP-62 NSCLC
TK-10 renal = test system: TK-10 renal
MCF7 breast = test system: MCF7 breast
SK-MEL-28 melanoma = test system: SK-MEL-28 melanoma
HS 578T breast = test system: HS 578T breast
HT29 colon = test system: HT29 colon
NCI-H23 lung = test system: NCI-H23 lung
SF-295 CNS = test system: SF-295 CNS
IGROV1 ovarian = test system: IGROV1 ovarian
SN12C renal = test system: SN12C renal
RXF 393 renal = test system: RXF 393 renal
PC-3 prostate = test system: PC-3 prostate
MDA-MB-231 breast = test system: MDA-MB-231 breast
HCT-15 colon = test system: HCT-15 colon
OVCAR-8 ovarian = test system: OVCAR-8 ovarian
UO-31 renal = test system: UO-31 renal
UACC-62 melanoma = test system: UACC-62 melanoma
OVCAR-5 ovarian = test system: OVCAR-5 ovarian
HOP-92 NSCLC = test system: HOP-92 NSCLC
A549 NSCLC = test system: A549 NSCLC
M14 melanoma = test system: M14 melanoma
KM12 colon = test system: KM12 colon
LOX IMVI melanoma = test system: LOX IMVI melanoma
RPMI-8226 leukemia = test system: RPMI-8226 leukemia
SK-MEL-2 melanoma = test system: SK-MEL-2 melanoma

O=C(Nc1cc(-c2ccccc2)[nH]n1)c1ccc(Cl)cc1 was tested, and the GI50 (SK-MEL-5 melanoma) was greater than 100 µM, the TGI (SK-MEL-5 melanoma) was greater than 100 µM and the GI50 (COLO 205 colon) was greater than 100 µM. The TGI (COLO 205 colon) was greater than 100 µM, the GI50 (SNB-19 CNS) was 74.2 µM and the TGI (SNB-19 CNS) was greater than 100 µM. For the same compound, the GI50 (HCC-2998 colon) was greater than 100 µM, the TGI (HCC-2998 colon) was greater than 100 µM and the GI50 (NCI-H460 lung) was 3.58 µM. For the same compound, the TGI (NCI-H460 lung) was greater than 100 µM, the GI50 (BT-549 breast) was greater than 100 µM and the TGI (BT-549 breast) was greater than 100 µM. The GI50 (CAKI-1 renal) was 2.66 µM, the TGI (CAKI-1 renal) was greater than 100 µM and the GI50 (SNB-75 CNS) was 17.7 µM. For the same compound, the TGI (SNB-75 CNS) was 90.3 µM, the GI50 (OVCAR-3 ovarian) was greater than 100 µM and the TGI (OVCAR-3 ovarian) was greater than 100 µM. For the same compound, the GI50 (OVCAR-4 ovarian) was greater than 100 µM, the TGI (OVCAR-4 ovarian) was greater than 100 µM and the GI50 (SR leukemia) was 5.65 µM. For the same compound, the TGI (SR leukemia) was greater than 100 µM, the GI50 (U251 CNS) was 9.42 µM and the TGI (U251 CNS) was greater than 100 µM. For the same compound, the GI50 (786-0 renal) was 72.4 µM, the TGI (786-0 renal) was greater than 100 µM and the GI50 (UACC-257 melanoma) was greater than 100 µM. It also gave a TGI (UACC-257 melanoma) greater than 100 µM, a GI50 (NCI/ADR-RES ovarian) greater than 100 µM and a TGI (NCI/ADR-RES ovarian) greater than 100 µM. It also gave a GI50 (SF-268 CNS) of 28.6 µM, a TGI (SF-268 CNS) greater than 100 µM and a GI50 (HCT-116 colon) of 9.22 µM. The TGI (HCT-116 colon) was greater than 100 µM, the GI50 (DU-145 prostate) was 6.96 µM and the TGI (DU-145 prostate) was greater than 100 µM. The GI50 (EKVX NSCLC) was greater than 100 µM, the TGI (EKVX NSCLC) was greater than 100 µM and the GI50 (A498 renal) was 1.27 µM. The TGI (A498 renal) was greater than 100 µM, the GI50 (MALME-3M melanoma) was 12.1 µM and the TGI (MALME-3M melanoma) was greater than 100 µM. The GI50 (NCI-H226 lung) was 56.7 µM, the TGI (NCI-H226 lung) was greater than 100 µM and the GI50 (ACHN renal) was 5.27 µM. For the same compound, the TGI (ACHN renal) was greater than 100 µM, the GI50 (SF-539 CNS) was 17.9 µM and the TGI (SF-539 CNS) was greater than 100 µM. It also gave a GI50 (SK-OV-3 ovarian) of 3.67 µM, a TGI (SK-OV-3 ovarian) greater than 100 µM and a GI50 (HOP-62 NSCLC) of 20.7 µM. It also gave a TGI (HOP-62 NSCLC) greater than 100 µM, a GI50 (TK-10 renal) of 9.22 µM and a TGI (TK-10 renal) greater than 100 µM. It also gave a GI50 (MCF7 breast) greater than 100 µM, a TGI (MCF7 breast) greater than 100 µM and a GI50 (SK-MEL-28 melanoma) greater than 100 µM. It also gave a TGI (SK-MEL-28 melanoma) greater than 100 µM, a GI50 (HS 578T breast) of 3.96 µM and a TGI (HS 578T breast) of 65.9 µM. The GI50 (HT29 colon) was 6.67 µM, the TGI (HT29 colon) was greater than 100 µM and the GI50 (NCI-H23 lung) was greater than 100 µM. The TGI (NCI-H23 lung) was greater than 100 µM, the GI50 (SF-295 CNS) was 1.91 µM and the TGI (SF-295 CNS) was greater than 100 µM. It also gave a GI50 (IGROV1 ovarian) of 3.04 µM, a TGI (IGROV1 ovarian) greater than 100 µM and a GI50 (SN12C renal) greater than 100 µM. It also gave a TGI (SN12C renal) greater than 100 µM, a GI50 (RXF 393 renal) of 7.16 µM and a TGI (RXF 393 renal) greater than 100 µM. It also gave a GI50 (PC-3 prostate) of 37.4 µM, a TGI (PC-3 prostate) greater than 100 µM and a GI50 (MDA-MB-231 breast) of 30.4 µM. The TGI (MDA-MB-231 breast) was greater than 100 µM, the GI50 (HCT-15 colon) was 4.14 µM and the TGI (HCT-15 colon) was greater than 100 µM. It also gave a GI50 (OVCAR-8 ovarian) of 24.2 µM, a TGI (OVCAR-8 ovarian) greater than 100 µM and a GI50 (UO-31 renal) of 7.32 µM. The TGI (UO-31 renal) was greater than 100 µM, the GI50 (UACC-62 melanoma) was greater than 100 µM and the TGI (UACC-62 melanoma) was greater than 100 µM. The GI50 (OVCAR-5 ovarian) was greater than 100 µM, the TGI (OVCAR-5 ovarian) was greater than 100 µM and the GI50 (HOP-92 NSCLC) was 37.1 µM. It also gave a TGI (HOP-92 NSCLC) greater than 100 µM, a GI50 (A549 NSCLC) of 30.4 µM and a TGI (A549 NSCLC) greater than 100 µM. It also gave a GI50 (M14 melanoma) of 8.66 µM, a TGI (M14 melanoma) greater than 100 µM and a GI50 (KM12 colon) of 3.28 µM. It also gave a TGI (KM12 colon) greater than 100 µM, a GI50 (LOX IMVI melanoma) of 9.23 µM and a TGI (LOX IMVI melanoma) greater than 100 µM. The GI50 (RPMI-8226 leukemia) was greater than 100 µM, the TGI (RPMI-8226 leukemia) was greater than 100 µM and the GI50 (SK-MEL-2 melanoma) was 6.97 µM. It also gave a TGI (SK-MEL-2 melanoma) greater than 100 µM.
